From US8426420B2, “Heterocyclic pyrazole-carboxamidesas P2Y12 antagonists” (Sanofi, priority 2007, dated 2013) come the findings set out here.

The target in this assay is human P2Y12 receptor (Homo sapiens, UniProt Q9H244). Description: Human P2Y12 recombinant cell membrane binding assay with 33P 2MeS-ADP. The note with it: competition against 33P 2MeS-ADP, membranes of CHO cells with recombinant human P2Y12 receptor. The procedure: The ability of the compounds of the formula Ito inhibit the P2Y12 receptor can be assessed by determining the concentration of the compound of the formula I that binds to the human P2Y12 Recombinant Cell Membrane Binding Assay with 33P 2MeS-ADP.
human P2Y12 receptor, sequence (Q9H244 whole entry): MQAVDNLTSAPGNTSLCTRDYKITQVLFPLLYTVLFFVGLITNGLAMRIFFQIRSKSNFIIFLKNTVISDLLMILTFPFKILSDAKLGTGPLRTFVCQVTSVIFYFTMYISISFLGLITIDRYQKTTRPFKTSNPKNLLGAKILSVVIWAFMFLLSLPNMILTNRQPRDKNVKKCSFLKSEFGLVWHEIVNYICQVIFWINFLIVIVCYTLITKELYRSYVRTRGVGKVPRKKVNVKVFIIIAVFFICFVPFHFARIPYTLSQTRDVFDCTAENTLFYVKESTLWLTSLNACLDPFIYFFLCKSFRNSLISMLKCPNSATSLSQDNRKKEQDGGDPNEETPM
Human P2Y12 Recombinant Cell Membrane Binding Assay
The ability of a test compound to bind to the P2Y12 receptor was evaluated in a recombinant cell membrane binding assay. In this competitive binding assay, the test compound competed against a radiolabeled agonist for binding to the P2Y12 receptor, expressed on the cell membrane. Inhibition of binding of the labeled material was measured and correlated to the amount and potency of the test compound. This binding assay is a modification of the procedure described by Takasaki, J. et. al, Mol. Pharmacol., 2001, Vol. 60, pg. 432. A membrane preparation was prepared from Chinese Hamster Ovary (CHO) cells with recombinant expression of the human P2Y12 receptor according to standard procedures as a source of P2Y12.
To a 96-well microtiterplate the following were added: a) 24 μl of assay buffer (10 mM HEPES, 138 mM NaCl, […] KCl, 12 mM NaHCO3, 1 mM EDTA-Na, 0.1% BSA, pH 7.4) b) 1 μL compound in DMSO c) 50 μL P2Y12 CHO membrane (20 μg/ml) and after 15 min at RT d) 25 μL of 1.61 nM 33P 2MeS-ADP (Perkin Elmer NEN custom synthesis, specific activity ˜2100 Ci/mmol) made in assay buffer.
After 20 min incubation at RT samples were transferred to 96-well microtiter filterplates (Millipore HTS GF/B), pre-wetted for 20 min with 300 μL of stop buffer (10 mM HEPES, 138 mM NaCl pH 7.4) and then filtered through completely with a Millipore plate vacuum. Next, wells were washed four times with 400 μl/well of stop buffer on a plate vacuum. The plate was disassembled and allowed to air dry overnight with the filter side up over night. The filter plates were snapped into adapter plates and 0.1 mL of Microscint 20 Scintillation Fluid (Perkin Elmer #6013621) was added to each well. The top of the filterplate was sealed with plastic plate covers. The sealed filterplate were incubated 2 hours at RT. A Microbeta Scintillation Counter was used to measure counts.
Compounds were diluted as 10 mM DMSO stocks and tested in a four-point, five-fold dilution series run in triplicate beginning at 10 μM, final concentration. Data were analyzed using a four-parameter curve fit with a fixed minimum and maximum experimentally defined as the average positive and negative controls on each plate.

Usually IC50 stands for the midpoint of a concentration-inhibition curve. On to `CCOC(=O)N1CCN(C(=O)[C@H](CNC(=O)C2CC2)NC(=O)c2cc(OCC(=O)N3CCC[C@H]3C(=O)NC3CCC3)n(-c3ccccc3)n2)CC1` [Example 91, 4-[(S)-2-({5-[2-((S)-2-Cyclobutylcarbamoyl-pyrrolidin-1-yl)-2-oxo-ethoxy]-1-phenyl-1H-pyrazole-3-carbonyl}-amino)-3-(cyclopropanecarbonyl-amino)-propionyl]-piperazine-1-carboxylic acid ethyl ester], for which the half-maximal inhibitory concentration (IC50) is 130 nM.
In the case of `CCCCOC(=O)N1CCN(C(=O)[C@@H](NC(=O)c2cc(OCC(=O)N3CCC[C@H]3C(=O)NC3CCC3)n(-c3ccccc3)n2)[C@H](C)CC)CC1` [Example 229, 4-[(2S,3R)-2-({5-[2-((S)-2-Cyclobutylcarbamoyl-pyrrolidin-1-yl)-2-oxo-ethoxy]-1-phenyl-1H-pyrazole-3-carbonyl}-amino)-3-methyl-pentanoyl]-piperazine-1-carboxylic acid butyl ester] it was 22 nM; in that of `CCOC(=O)N1CCN(C(=O)[C@H](CC(=O)O)NC(=O)c2cc(OCC(=O)N3CCC[C@H]3C(=O)NCC(F)F)n(-c3cccc(F)c3)n2)CC1` [Example 79, 4-((S)-3-Carboxy-2-{[5-[2-((S)-2-(2,2-difluoroethylcarbamoyl)-pyrrolidin-1-yl)-2-oxo-ethoxy]-1-(3-fluoro-phenyl)-1H-pyrazole-3-carbonyl]-amino}-propionyl)-piperazine-1-carboxylic acid ethyl ester], 145 nM; in that of `CCOC(=O)N1CCN(C(=O)[C@H](CCC(=O)OCc2ccccc2)NC(=O)c2cc(OCC(=O)N3CCC[C@H]3C(=O)NC3CCC3)n(-c3ccccc3)n2)CC1` [Example 132, 4-[(S)-2-({5-[2-((S)-2-Cyclobutylcarbamoyl-pyrrolidin-1-yl)-2-oxo-ethoxy]-1-phenyl-1H-pyrazole-3-carbonyl}-amino)-4-benzyloxycarbonyl-butyryl]-piperazine-1-carboxylic acid ethyl ester], 25 nM.
With `CCCCOC(=O)N1CCN(C(=O)[C@H](C)NC(=O)c2cc(OCC(=O)N3CCC[C@H]3C(=O)NC3CCC3)n(-c3ccccc3)n2)CC1` [Example 186, 4-[(S)-2-({5-[2-((S)-2-Cyclobutylcarbamoyl-pyrrolidin-1-yl)-2-oxo-ethoxy]-1-phenyl-1H-pyrazole-3-carbonyl}-amino)-propionyl]-piperazine-1-carboxylic acid butyl ester] the figure was 16 nM.
Take `CCOC(=O)N1CCN(C(=O)[C@H](CCC(=O)OC2CCCCC2)NC(=O)c2cc(OCC(=O)N3CCC[C@H]3C(=O)NC3CCC3)n(-c3ccccc3)n2)CC1` [Example 129, 4-[(S)-2-({5-[2-((S)-2-Cyclobutylcarbamoyl-pyrrolidin-1-yl)-2-oxo-ethoxy]-1-phenyl-1H-pyrazole-3-carbonyl}-amino)-4-cyclohexyloxycarbonyl-butyryl]-piperazine-1-carboxylic acid ethyl ester]: the half-inhibitory concentration (IC50) worked out at 83 nM.
As to `CCCCOC(=O)N1CCN(C(=O)[C@H](CCCOC(=O)C(C)C)NC(=O)c2cc(OCC(=O)N3CCC[C@H]3C(=O)NC3CCC3)n(-c3ccccc3)n2)CC1` [Example 212, 4-[(S)-2-({5-[2-((S)-2-Cyclobutylcarbamoyl-pyrrolidin-1-yl)-2-oxo-ethoxy]-1-phenyl-1H-pyrazole-3-carbonyl}-amino)-5-isobutyryloxy-pentanoyl]-piperazine-1-carboxylic acid butyl ester], the half-maximal inhibitory concentration (IC50) came out at 17 nM.
With `CCOC(=O)N1CCN(C(=O)[C@H](CCCCOC(C)=O)NC(=O)c2cc(OCC(=O)N3CCC[C@H]3C(=O)NC3CCC3)n(-c3ccccc3)n2)CC1` [Example 237, 4-[(S)-6-Acetoxy-2-({5-[2-((S)-2-cyclobutylcarbamoyl-pyrrolidin-1-yl)-2-oxo-ethoxy]-1-phenyl-1H-pyrazole-3-carbonyl}-amino)-hexanoyl]-piperazine-1-carboxylic acid ethyl ester] the figure was 30 nM; with `CCCOC(=O)N1CCN(C(=O)C(NC(=O)c2cc(OCC(=O)N3CCC[C@H]3C(=O)NC3CCC3)n(-c3ccccc3)n2)C(C)F)CC1` (stereo partly drawn) [Example 175, 4-[2-({5-[2-((S)-2-Cyclobutylcarbamoyl-pyrrolidin-1-yl)-2-oxo-ethoxy]-1-phenyl-1H-pyrazole-3-carbonyl}-amino)-3-fluoro-butyryl]-piperazine-1-carboxylic acid propyl ester], 179 nM.
Regarding `CCOC(=O)N1CCN(C(=O)[C@H](CC(=O)O)NC(=O)c2cc(OCC(=O)N3CCC[C@H]3C(=O)NCC(F)F)n(-c3ccccc3)n2)CC1` [Example 57, 4-{(S)-3-Carboxy-2-[(5-{2-[(S)-2-(2,2-difluoro-ethylcarbamoyl)-pyrrolidin-1-yl]-2-oxo-ethoxy}-1-phenyl-1H-pyrazole-3-carbonyl)-amino]-propionyl}-piperazine-1-carboxylic acid ethyl ester], the IC50 was 183 nM.
On to `CCOC(=O)N1CCN(C(=O)[C@H](CCC(=O)O)NC(=O)c2cc(OCC(=O)N3CCC[C@H]3c3ccccc3)n(-c3ccccc3)n2)CC1` [Example 170, 4-[(S)-4-Carboxy-2-({5-[2-oxo-2-((S)-2-phenyl-pyrrolidin-1-yl)-ethoxy]-1-phenyl-1H-pyrazole-3-carbonyl}-amino)-butyryl]-piperazine-1-carboxylic acid ethyl ester], for which the IC50 amounted to 86 nM.
`CCOC(=O)N1CCN(C(=O)[C@H](CCC(=O)OC2CCCC2)NC(=O)c2cc(OCC(=O)N3CCC[C@H]3C(=O)NC3CCC3)n(-c3ccccc3)n2)CC1` [Example 130, 4-[(S)-2-({5-[2-((S)-2-Cyclobutylcarbamoyl-pyrrolidin-1-yl)-2-oxo-ethoxy]-1-phenyl-1H-pyrazole-3-carbonyl}-amino)-4-cyclopentyloxycarbonyl-butyryl]-piperazine-1-carboxylic acid ethyl ester]: the IC50 was 59 nM.
In the case of `CCCCOC(=O)N1CCN(C(=O)[C@H](CC(F)(F)F)NC(=O)c2cc(OCC(=O)N3CCC[C@H]3C(=O)NC3CCC3)n(-c3ccccc3)n2)CC1` [Example 274, 4-[(S)-2-({5-[2-((S)-2-Cyclobutylcarbamoyl-pyrrolidin-1-yl)-2-oxo-ethoxy]-1-phenyl-1H-pyrazole-3-carbonyl}-amino)-4,4,4-trifluoro-butyryl]-piperazine-1-carboxylic acid butyl ester] it was 36 nM; in that of `CCOC(=O)CC[C@H](NC(=O)c1cc(OCC(=O)N2CCC[C@H]2C(=O)NC2CCC2)n(-c2cccc(F)c2)n1)C(=O)N1CCN(C(=O)OCC)CC1` [Example 140, 4-((S)-2-{[5-[2-((S)-2-Cyclobutylcarbamoyl-pyrrolidin-1-yl)-2-oxo-ethoxy]-1-(3-fluoro-phenyl)-1H-pyrazole-3-carbonyl]-amino}-4-ethoxyoxycarbonyl-butyryl)-piperazine-1-carboxylic acid ethyl ester], 173 nM.
As for `CCOC(=O)C(=O)NC[C@H](NC(=O)c1cc(OCC(=O)N2CCC[C@H]2C(=O)NC2CCC2)n(-c2ccccc2)n1)C(=O)N1CCN(C(=O)OCC)CC1` [Example 90, 4-[(S)-2-({5-[2-((S)-2-Cyclobutylcarbamoyl-pyrrolidin-1-yl)-2-oxo-ethoxy]-1-phenyl-1H-pyrazole-3-carbonyl}-amino)-3-(ethoxyoxalyl-amino)-propionyl]-piperazine-1-carboxylic acid ethyl ester], the IC50 worked out at 35 nM.
With `CCOC(=O)N1CCN(C(=O)[C@H](CCC(=O)O)NC(=O)c2cc(OCC(=O)N3CCCC3c3cccs3)n(-c3ccccc3)n2)CC1` (stereo partly drawn) [Example 167, 4-[(S)-4-Carboxy-2-({5-[2-oxo-2-(2-thiophen-2-yl-pyrrolidin-1-yl)-ethoxy]-1-phenyl-1H-pyrazole-3-carbonyl}-amino)-butyryl]-piperazine-1-carboxylic acid ethyl ester] the figure was 146 nM; with `CCCCOC(=O)N1CCN(C(=O)[C@H](CC2CC2)NC(=O)c2cc(OCC(=O)N3CCC[C@H]3C(=O)NC3CCC3)n(-c3ccccc3)n2)CC1` [Example 234, 4-[(S)-2-({5-[2-((S)-2-Cyclobutylcarbamoyl-pyrrolidin-1-yl)-2-oxo-ethoxy]-1-phenyl-1H-pyrazole-3-carbonyl}-amino)-3-cyclopropyl-propionyl]-piperazine-1-carboxylic acid butyl ester], 85 nM.
